The values that follow come from patent US20040037843A1, “Inducing cellular immune responses to prostate cancer antigens using peptide and nucleic acid compositions” (priority 2003, published 2004).

Common to all, as to test: HLA class I binding assay, purified HLA, inhibition of 125I-labelled probe peptide
The target in one assay is HLA-A*0201 (Homo sapiens, UniProt P04439, D140Y/D185E/D98H/E176V/E277Q/G131W/G231S/I119V/I121R/I166T/I218V/L300P/L318F/N151K/N90K/P208A/P217A/Q86G/Q94H/R138H/R169H/T345S). The note with it: A*[…], A2 supermotif cross-reactive binding data.
For a further assay, the target named is HLA-A*0206 (Homo sapiens, UniProt P04439, D140Y/D185E/D98H/E176V/E277Q/F33Y/G131W/G231S/I119V/I121R/I166T/I218V/L300P/L318F/N151K/N90K/P208A/P217A/Q86G/Q94H/R138H/R169H/T345S). The note with it: A*[…], A2 supermotif cross-reactive binding data.
In a further assay the target is HLA-A*6802 (Homo sapiens, UniProt P04439, A269V/D140Y/D185E/E176V/E277Q/E87N/F33Y/G231S/I121R/I166T/I218V/L180W/L300P/L318F/N151K/P208A/P217A/Q86R/R138H/R169H/S129P/T345S/V36M). Conditions: A2 supermotif cross-reactive binding data; read-out: A*6802 nM.
Another assay deals with HLA-A*0202 (Homo sapiens, UniProt P04439, D140Y/D185E/D98H/E176V/E277Q/G131W/G231S/I119L/I121R/I166T/I218V/L180W/L300P/L318F/N151K/N90K/P208A/P217A/Q67R/Q86G/Q94H/R138H/R169H/T345S). The note with it: A2 supermotif cross-reactive binding data.
The target of the next assay is HLA-A*0203 (Homo sapiens, UniProt P04439, A173T/D140Y/D185E/D98H/E277Q/G131W/G231S/I119V/I121R/I166T/I218V/L180W/L300P/L318F/N151K/N90K/P208A/P217A/Q86G/Q94H/R138H/R169H/T345S). Conditions: A*[…], A2 supermotif cross-reactive binding data.

Consider `CSCC[C@H](NC(=O)[C@H](Cc1ccccc1)NC(=O)[C@H](CCCCN)NC(=O)[C@@H](NC(=O)[C@@H](NC(=O)[C@@H](N)CCCCN)C(C)C)[C@@H](C)O)C(=O)N[C@@H](CC(C)C)C(=O)N[C@@H](CS)C(=O)N[C@H](C(=O)O)C(C)C` [Peptide 60.0220], for which the IC50 on HLA-A*0201 is 69 nM; on HLA-A*0206, 128 nM; at HLA-A*6802, greater than 10000 nM; at HLA-A*0202, 518 nM; on HLA-A*0203, 53 nM.

Regarding `CC(C)C[C@H](NC(=O)[C@H](CO)NC(=O)[C@@H](NC(=O)[C@H](CS)NC(=O)[C@H](CCC(N)=O)NC(=O)[C@H](CC(C)C)NC(=O)[C@@H](N)CO)C(C)C)C(=O)N[C@@H](Cc1c[nH]cn1)C(=O)N[C@@H](CC(C)C)C(=O)N[C@H](C(=O)O)C(C)C` [Peptide 1418.52], the IC50 was determined as 13 nM on HLA-A*0201; 5.2 nM on HLA-A*0206; 205 nM on HLA-A*6802; 6.3 nM on HLA-A*0202; 2.8 nM at HLA-A*0203.

For `CSCC[C@H](NC(=O)[C@H](CC(=O)O)NC(=O)[C@H](CC(N)=O)NC(=O)[C@H](CO)NC(=O)[C@H](CC(C)C)NC(=O)[C@H](CC(C)C)NC(=O)[C@@H](N)Cc1c[nH]cn1)C(=O)N[C@@H](CS)C(=O)N[C@H](C(=O)O)C(C)C` [Peptide 1418.20], the IC50 at HLA-A*0201 was 119 nM; at HLA-A*0206 it was 176 nM; at HLA-A*6802, greater than 10000 nM; at HLA-A*0202, 102 nM; at HLA-A*0203 it was 278 nM.
